In US7871765B2, “Composition having antitumor effect” (priority 2004, dated 2011):

How the values were obtained:
MB49 cells [1] = experiment: Concurrent administration of MB49 cells, HVJ-E and ADM into the bladder; format: in vivo, mouse; conditions: two weeks
Method: Three 6-week-old female C57BL/6Cr Slc mice per group were anesthetized by administering a mixture of 90 μl of ketamine (50 mg) and 10 μl of xylazine (2% solution) to the left femoral muscle, a 24G catheter was inserted into the bladder, 100 μl of each of the following sample solutions was administered using a 1-ml syringe, and the catheter was indwelled for 1 hour.
The groups established are as follows:
The number of MB49 cells administered was 5×10^6 cells. After adjustment to a final volume of 100 μl, each solution was administered into the bladder. Two weeks later, the bladder was extirpated, and sections were prepared and stained with HE.

MB49 cells [2] = experiment: MB49 cell-inoculated mouse model (intradermal), tumor volume; format: in vivo
From the text: This experimental model can be prepared in accordance with, for example, a method described in Anticancer Res., 2004, 24(4):2225-30, and the like.

[3] = system: MB49 (transitional epithelial cancer) cells; experiment: Adriamycin sensitivity of MB49 cells, WST-8 assay; format: cell-based; conditions: 48 hours
Method: After 48 hours of cultivation, the supernatant was removed by WST-8 assay, 100 μl of a cell counting kit solution, previously diluted 10 fold with RPMI medium, was added, and the plate was allowed to stand at 37° C. for 1.5 hours. Absorbance at 450 nm was determined using a microplate reader. Assuming the absorbance of a sample of MB49 cells only to be 100% survival rate, the survival rates at various concentrations were calculated.

[4] = system: CT-26 cells derived from mouse colon cancer; experiment: Antitumor effect on transplanted CT-26 tumors in cancer-bearing mice (tumor volume, remission); format: in vivo; conditions: Study 1, 21 days after treatment, single dose; for mean tumor volume: mean of five animals, BLM 6.5 μg/tumor intratumoral, CDDP 0.2 mg/body i.p.
Method: CT-26 cells derived from mouse colon cancer (5×10^6 cells) were intradermally transplanted to the backs of 8-week-old male BALB/cAnNCrj mice to yield cancer-bearing mice. Five days after the transplantation, 0.2 mg/body Platocin Injection (cisplatin, CDDP) was intraperitoneally administered to animals wherein the tumor diameter (major diameter) had reached about 5 mm. Following this administration, HVJ-E containing or not containing an anticancer drug (bleomycin hydrochloride [BLM]: Nippon Kayaku Co., Ltd.) and the like were administered into the tumor in a single dose (on the day after administration of cisplatin) or in multiple doses (3 times: 1, 5, and 8 days after administration of cisplatin). Tumor diameters, survival curves, and immune reactions in the tumor tissue were evaluated.
(Study 1) The groups described below were established, and the antitumor effects of treatment for transplanted tumors was evaluated.
For modeling, (1) a control group, (2) an HVJ-E group, (3) a BLM-alone group, (4) an HVJ-E/BLM group, (5) a CDDP-alone group, and (6) a CDDP HVJ-E/BLM single dosing group were established; tumor volumes were measured 21 days after each treatment, and the influence on the antitumor effect was examined.
(Study 2) In an attempt to further enhance the antitumor effect of the (single) treatment by single dosing of CDDP HVJ-E/BLM given in Study 1, HVJ-E/BLM was administered in multiple doses (3 times) (Study 2-1). […] (Study 2-1)
Tumor volumes were examined 21 days after treatment for (1) a control group, (2) a CDDP HVJ-E/BLM single dosing group (single treatment), and (3) a CDDP HVJ-E/BLM 3 dosing group.
After completion of the quarantine and habituation, animals were shaven with clippers. The tumor cell suspension at 100 μL/site (5×10^6 cells/body) was administered intradermally to the backs of 59 mice using a disposable syringe and injection needle (26 G). On the day following the administration, the same administration was performed on 57 animals (non-recipient animals).
Tumor diameters (major diameter, minor diameter) were measured 5 days after transplantation (not measured after grouping). Five days later, animals having a tumor diameter (major diameter) of about 5 mm were grouped by stratified randomization to obtain a nearly uniform distribution of mean tumor diameters (major diameters).
For the CDDP administration group, a single-dose intraperitoneal administration (1000 μl) was performed using a disposable injection syringe and injection needle. […]
The day of administration was taken as Day 0 after administration. On Days 3, 6, 9, 12, 15, 18, and 21 after administration, all animals had their tumor diameters measured, and tumor volume (major diameter×minor diameter×minor diameter÷2) was calculated.

[5] = system: CT-26 mouse colon cancer cells; experiment: Antitumor effect of cisplatin (CDDP) and HVJ-E in combination, CT-26 tumors; format: in vivo; conditions: HVJ-E alone, CDDP 1 mg/kg, physiological saline
Method: CT-26 mouse colon cancer cells were intradermally inoculated into the backs of BALB/c mice at 5×10^6 cells/head. Five days after the inoculation, treatment with HVJ-E and CDDP was started in the following animal groups. For each animal group, tumor volume was calculated as major diameter×minor diameter×minor diameter/2.
• #1: Physiological saline group • #2: HVJ-E alone • #3: CDDP 1 mg/kg • #4: CDDP 3 mg/kg • #5: CDDP 1 mg/kg+HVJ-E (5,000 HAU) • #6: CDDP 3 mg/kg+HVJ-E (5,000 HAU) • (n=5 or 6 for each group) (Results)

CT-26 tumor tissue = experiment: HE and CD-4/CD-8 immunohistological staining of tumor tissue; format: in vivo, mouse; conditions: 9 days after CDDP administration; single dosing
From the text: (Study 5) To evaluate the infiltration of CD-4, CD-8, neutrophils, macrophage and the like in the tumor tissues examined in the study of the antitumor effect of the antitumor immunity, the following test groups were established, and tumor tissues were extirpated 9 days after administration of CDDP and subjected to immunohistological staining.
2-9) The tumor tissue was frozen in liquid nitrogen in preparation for staining the tumor tissue. The tumor tissue was cut into sections 8 μm in thickness using a cryostat. The tissue sections were fixed in −20° C. cold acetone for 15 minutes. After the sections were washed with water, endogenous avidin-biotin blocking was performed, and the sections were washed with water. The sample was reacted with normal rabbit serum and 50-fold diluted primary antibody [anti-mouse CD8a rat antibody (Ly-Z; Pharmingen) or anti-mouse CD4a rat antibody (L3T4; Pharmingen)] at 4° C. overnight. After the sample was washed with 7.5 mM Tris buffer solution (pH 7.5), it was reacted with 300-fold diluted anti-rat biotin-labeled rabbit Ig (DAKO) for 30 minutes. After the sample was washed with 9.5 mM Tris buffer solution (pH 7.5), it was reacted with 100-fold diluted streptoavidin for 30 minutes. After the sample was washed with 11.5 mM Tris buffer solution (pH 7.5), a color was developed with Fast Red. […]

CT-26 cells = experiment: CTL assay using radiolabeled chromium with splenocytes of treated mice; format: cell-based, mouse; conditions: E/T ratio 80; CT-26 inoculated mice; HVJ-E/BLM 3 dosing where given
Method: To determine whether or not the antitumor immunity effect observed in the previous study was due to the induction of CT26 cell-specific antitumor immunity, splenocytes recovered from animals were stimulated with CT26 cells, and a CTL assay using radiolabeled chromium was performed to determine whether or not CT26-specific antitumor immunity had been induced.
In this study, (1) a CT-26 cell non-inoculation group, (2) a CT-26 cell-alone inoculation group, (3) a CT-26 cell inoculation+CDDP administration group, and (4) a CT-26 cell inoculation+CDDP+HVJ-E/BLM 3 dosing group were established and tested.
The spleen was extirpated from each anesthetized animal and recovered in a Petri dish (6 cm in diameter) containing 3 ml of RPMI solution. The spleen tissue was squashed between the frosted portions of two sterile glass slides, splenocytes were separated from the coat to the maximum possible extent, and the debris was removed through meshes. After 7 ml of PRMI solution was added, the cells were centrifuged at 1200 rpm for 10 minutes, and the supernatant was removed. […] The cells obtained from this operation were counted. […]
Actual CTL assay was performed with the ratio of effector cells (E) and target cells (T), E/T ratio, set at 80, […] 40, 20, 10, and 5. In this operation, 100 μl of target cells (1×10^5 cells/ml) were added to make a total quantity of 200 μl. […]

Compound: COc1cccc2c1C(=O)c1c(O)c3c(c(O)c1C2=O)C[C@@](O)(C(=O)CO)C[C@@H]3O[C@H]1C[C@H](N)[C@H](O)[C@H](C)O1 [ADM, adriamycin]
- infiltration of MB49 cells into the bladder (MB49 cells [1]; ADM 0.008 μg/ml, with or without HVJ-E 5000 HAU (Groups 1, 2)): all animals showed evidence of infiltration of MB49 cells
- animals in which infiltration of MB49 cells could not be prevented (MB49 cells [1]; Group 3: ADM 1 μg/ml): 80%
- tumor suppressing effect (MB49 cells [2]; ADM alone (20 or 100 μg)): a tumor suppressing effect was observed
- tumor eradication (MB49 cells [2]; ADM alone (20 or 100 μg), tumor diameter 7-8 mm): eradication was not observed
- tumor volume (MB49 cells [2]; G2: ADM 20 μg x3 into tumor, Day 0): 128.4 mm^3
- tumor volume (MB49 cells [2]; G2: ADM 20 μg x3 into tumor, Day 5): 303.2 mm^3
- tumor volume (MB49 cells [2]; G2: ADM 20 μg x3 into tumor, Day 7): 330 mm^3
- tumor volume (MB49 cells [2]; G2: ADM 20 μg x3 into tumor, Day 9): 324.9 mm^3
- tumor volume (MB49 cells [2]; G2: ADM 20 μg x3 into tumor, Day 12): 331.74 mm^3
- tumor volume (MB49 cells [2]; G2: ADM 20 μg x3 into tumor, Day 15): 443.36 mm^3
- tumor volume (MB49 cells [2]; G2: ADM 20 μg x3 into tumor, Day 19): 773.88 mm^3
- tumor volume (MB49 cells [2]; G2: ADM 20 μg x3 into tumor, Day 21): 1022.48 mm^3
- tumor volume (MB49 cells [2]; G3: ADM 100 μg x3 into tumor, Day 0): 119 mm^3
- tumor volume (MB49 cells [2]; G3: ADM 100 μg x3 into tumor, Day 5): 285.8 mm^3
- tumor volume (MB49 cells [2]; G3: ADM 100 μg x3 into tumor, Day 7): 291.2 mm^3
- tumor volume (MB49 cells [2]; G3: ADM 100 μg x3 into tumor, Day 9): 333.9 mm^3
- tumor volume (MB49 cells [2]; G3: ADM 100 μg x3 into tumor, Day 12): 426.88 mm^3
- tumor volume (MB49 cells [2]; G3: ADM 100 μg x3 into tumor, Day 15): 450.76 mm^3
- tumor volume (MB49 cells [2]; G3: ADM 100 μg x3 into tumor, Day 19): 989.52 mm^3
- tumor volume (MB49 cells [2]; G3: ADM 100 μg x3 into tumor, Day 21): 1220.44 mm^3
- survival rate ([3]; ADM 0.004 μg/ml): 60.1%
- survival rate ([3]; ADM 0.008 μg/ml): 54%
- survival rate ([3]; ADM 0.063 μg/ml): 34.9%
- survival rate ([3]; ADM 0.125 μg/ml): 27.6%
- survival rate ([3]; ADM 0.25 μg/ml): 22.6%
- survival rate ([3]; ADM 0.5 μg/ml): 17.2%
- survival rate ([3]; ADM 1 μg/ml): 11.7%
- survival rate ([3]; ADM 2 μg/ml): 6.7%
- LD50 concentration ([3]; MB49 cells, WST-8): 0.008 µg/mL
- LD90 concentration ([3]; MB49 cells, WST-8): 1 µg/mL

Compound: [NH2][Pt]([NH2])([Cl])[Cl] [CDDP, cisplatin]
- mean tumor volume [4]: 387 mm^3
- mean tumor volume relative to control group as 100% [4]: 23.2%
- order of regression effect ([5]; cell-derived HVJ-E study): greater in the order of the physiological saline group, HVJ-E-alone administration group, and CDDP 1 mg/kg administration group
- tumor volume compared among groups ([5]; egg-derived HVJ-E study): no major difference was observed
- pathological findings in tumor tissue (HE staining) (CT-26 tumor tissue): tumor cell necrotic signs were observed over a wide range of the tumor tissue
- % specific Cr release (CT-26 cells): 12.9%

Compound: bleomycin hydrochloride [BLM]
- mean tumor volume [4]: 1303 mm^3
- mean tumor volume relative to control group as 100% [4]: 80.0%
- pathological findings in tumor tissue (HE staining) (CT-26 tumor tissue): Generally similar findings
